According to US20240116985A1, “STAPLED PEPTIDES AND METHODS THEREOF” (priority 2020, published 2024):

Test: CHI Log D procedure
Assay type: physicochemical
Conditions: pH 7.4

Row | Structure (SMILES) | CHI Log D
1 | CC(=O)N[C@@H](Cc1ccccc1)C(=O)N[C@@H](CC(=O)O)C(=O)N[C@@H](C)C(=O)N[C@]1(C)CCCCCCC=CCOC(=O)N2CC[C@@](C(=O)N[C@@H](Cc3ccccc3)C(=O)N[C@@H](Cc3c[nH]c4ccccc34)C(=O)N[C@@H](CCC(N)=O)C(N)=O)(C2)NC(=O)[C@H](C(C)C)NC(=O)[C@H](Cc2ccccc2)NC(=O)[C@H](CCCC(=O)O)NC(=O)[C@H](C)NC(=O)[C@H](CC(=O)O)NC(=O)[C@H](CC(=O)O)NC1=O [I-24, Ac-Phe-Asp-Ala-R8-Asp-Asp-Ala-Aad-Phe-Val-PyrS-Phe-Trp-Gln-NH2] | 0.977
2 | CC(=O)N1CCC[C@]12CC=CCCCC1(CCCC=CCCCCCC[C@@](C)(C(=O)N[C@@H](Cc3ccccc3)C(=O)N[C@@H](Cc3c[nH]c4ccccc34)C(=O)N[C@@H](CCC(N)=O)C(N)=O)NC(=O)[C@H](C(C)C)NC(=O)[C@H](Cc3ccccc3)NC(=O)[C@H](C)NC(=O)[C@H](C)NC(=O)[C@H](CC(=O)O)NC(=O)[C@H](CCC(=O)O)NC1=O)NC(=O)[C@H](C)NC(=O)[C@H](CC(=O)O)NC2=O (stereo partly drawn) [I-282, Ac-PL3-Asp-Ala-B5-Glu-Asp-Ala-Ala-Phe-Val-S8-Phe-Trp-Gln-NH2] | 2.224
3 | CC(=O)N1CCC[C@]12CC=CCCCC1(CCCC=CCCCCCC[C@@](C)(C(=O)N[C@@H](Cc3ccccc3)C(=O)N[C@@H](Cc3c[nH]c4ccccc34)C(=O)N[C@@H](CCC(N)=O)C(N)=O)NC(=O)[C@H](C(C)C)NC(=O)[C@H](Cc3ccc(Cl)cc3)NC(=O)[C@H](C)NC(=O)[C@H](C)NC(=O)[C@H](CC(=O)O)NC(=O)[C@H](CC(=O)O)NC1=O)NC(=O)[C@H](C)NC(=O)[C@H](CC(=O)O)NC2=O (stereo partly drawn) [I-308, Ac-PL3-Asp-Ala-B5-Asp-Asp-Ala-Ala-4C1F-Val-S8-Phe-Trp-Gln-NH2] | 2.03
4 | CC(=O)N1CCC[C@]12CC=CCCCC1(CCCC=CCCCCCC[C@@](C)(C(=O)N[C@@H](Cc3ccccc3)C(=O)N[C@@H](Cc3c[nH]c4ccccc34)C(=O)N[C@@H](CCC(N)=O)C(N)=O)NC(=O)[C@H](C(C)C)NC(=O)[C@H](Cc3ccccc3)NC(=O)[C@H](C)NC(=O)[C@H](C)NC(=O)[C@H](CCC(=O)O)NC(=O)[C@H](CCc3ccccc3)NC1=O)NC(=O)[C@H](C)NC(=O)[C@H](CC(=O)O)NC2=O (stereo partly drawn) [I-196, Ac-PL3-Asp-Ala-B5-hPhe-Glu-Ala-Ala-Phe-Val-S8-Phe-Trp-Gln-NH2] | 3.711
5 | CC(=O)N[C@@H](Cc1ccccc1)C(=O)N[C@@H](CC(=O)O)C(=O)N[C@@H](C)C(=O)N[C@]1(C)CCCCCCC=CCOC(=O)N2CC[C@@](C(=O)N[C@@H](Cc3ccccc3)C(=O)N[C@@H](Cc3c[nH]c4ccccc34)C(=O)N[C@@H](CCC(N)=O)C(N)=O)(C2)NC(=O)[C@H](C(C)C)NC(=O)[C@H](CCc2ccccc2)NC(=O)[C@H](C)NC(=O)[C@H](C)NC(=O)[C@H](CC(=O)O)NC(=O)[C@H](CC(=O)O)NC1=O [I-118, Ac-Phe-Asp-Ala-R8-Asp-Asp-Ala-Ala-hPhe-Val-PyrS-Phe-Trp-Gln-NH2] | 1.545

Same assay, conditions: pH 7.4, CHI Log D

Row | Structure (SMILES) | chromatographic logD | logD
6 | CC(=O)N[C@@H](Cc1ccccc1)C(=O)N[C@@H](CC(=O)O)C(=O)N[C@@H](C)C(=O)N[C@]1(C)CCCCCCC=CCOC(=O)N2CC[C@@](C(=O)N[C@@H](Cc3ccccc3)C(=O)N[C@@H](Cc3c[nH]c4ccccc34)C(=O)N[C@@H](CCC(N)=O)C(N)=O)(C2)NC(=O)[C@H](C(C)C)NC(=O)[C@H](Cc2ccccc2)NC(=O)[C@H](CCC(=O)O)NC(=O)[C@H](C)NC(=O)[C@H](CC(=O)O)NC(=O)[C@H](CC(=O)O)NC1=O (single isomer, unassigned) [I-21, Ac-Phe-Asp-Ala-R8-Asp-Asp-Ala-Glu-Phe-Val-PyrS-Phe-Trp-Gln-NH2] | 0.92 | –
7 | CC(=O)N1CCC[C@]12CC=CCCCC1(CCCC=CCCCCCC[C@@](C)(C(=O)N[C@@H](Cc3ccccc3)C(=O)N[C@@H](Cc3c[nH]c4ccccc34)C(=O)N[C@@H](CO)C(N)=O)NC(=O)[C@H](C(C)C)NC(=O)[C@H](Cc3ccccc3)NC(=O)[C@H](C)NC(=O)[C@H](C)NC(=O)[C@H](CC(=O)O)NC(=O)[C@H](CC(=O)O)NC1=O)NC(=O)[C@H](C)NC(=O)[C@H](CC(=O)O)NC2=O (single isomer, unassigned) [I-334, Ac-PL3-Asp-Ala-B5-Asp-Asp-Ala-Ala-Phe-Val-S8-Phe-WCHO-Ser-NH2] | – | 1.86
8 | CC(=O)N[C@@H](Cc1ccccc1)C(=O)N[C@@H](CC(=O)O)C(=O)N[C@@H](C)C(=O)N[C@]1(C)CCCCCCC=CCOC(=O)N2CC[C@@](C(=O)N[C@@H](Cc3ccccc3C(N)=O)C(=O)N[C@@H](Cc3c[nH]c4ccccc34)C(=O)N[C@@H](CCC(N)=O)C(N)=O)(C2)NC(=O)[C@H](C(C)C)NC(=O)[C@H](Cc2ccccc2)NC(=O)[C@H](C)NC(=O)[C@H](C)NC(=O)[C@H](CC(=O)O)NC(=O)[C@H](CC(=O)O)NC1=O (single isomer, unassigned) [I-105, Ac-Phe-Asp-Ala-R8-Asp-Asp-Ala-Ala-Phe-Val-PyrS-2CBMF-Trp-Gln-NH2] | 1.03 | –
9 | CC(=O)N[C@@H](Cc1ccccc1)C(=O)N[C@@H](CC(=O)O)C(=O)N[C@@H](C)C(=O)N[C@]1(C)CN(C)C(=O)OCC=CCCCCC[C@@](C)(C(=O)N[C@@H](Cc2ccccc2)C(=O)N[C@@H](Cc2c[nH]c3ccccc23)C(=O)N[C@@H](CCC(N)=O)C(N)=O)NC(=O)[C@H](C(C)C)NC(=O)[C@H](Cc2ccccc2)NC(=O)[C@H](C)NC(=O)[C@H](C)NC(=O)[C@H](CC(=O)O)NC(=O)[C@H](CC(=O)O)NC1=O (single isomer, unassigned) [I-45, Ac-Phe-Asp-Ala-RgN-Asp-Asp-Ala-Ala-Phe-Val-S7-Phe-Trp-Gln-NH2] | 1.21 | –
10 | CC(=O)N[C@@H](Cc1ccccc1)C(=O)N[C@@H](CC(=O)O)C(=O)N[C@@H](C)C(=O)N[C@]1(C)CCCCCCC=CCOC(=O)N2CC[C@@](C(=O)N[C@@H](CC(=O)O)C(=O)N[C@@H](Cc3c[nH]c4ccccc34)C(=O)N[C@@H](CCC(N)=O)C(N)=O)(C2)NC(=O)[C@H](C(C)C)NC(=O)[C@H](Cc2ccccc2)NC(=O)[C@H](C)NC(=O)[C@H](C)NC(=O)[C@H](CC(=O)O)NC(=O)[C@H](CC(=O)O)NC1=O (single isomer, unassigned) [I-122, Ac-Phe-Asp-Ala-R8-Asp-Asp-Ala-Ala-Phe-Val-PyrS-Asp-Trp-Gln-NH2] | 0.84 | –
11 | CC(=O)N[C@@H](Cc1ccccc1)C(=O)N[C@@H](CC(=O)O)C(=O)N[C@@H](C)C(=O)N[C@]1(C)CCCCCCC=CCOC(=O)N2CC[C@@](C(=O)N[C@@H](CC3CCCC3)C(=O)N[C@@H](Cc3c[nH]c4ccccc34)C(=O)N[C@@H](CCC(N)=O)C(N)=O)(C2)NC(=O)[C@H](C(C)C)NC(=O)[C@H](Cc2ccccc2)NC(=O)[C@H](C)NC(=O)[C@H](C)NC(=O)[C@H](CC(=O)O)NC(=O)[C@H](CC(=O)O)NC1=O (single isomer, unassigned) [I-93, Ac-Phe-Asp-Ala-R8-Asp-Asp-Ala-Ala-Phe-Val-PyrS-CypA-Trp-Gln-NH2] | 1.32 | –
12 | CC(=O)N1CCC[C@]12CC=CCCCC1(CCCC=CCCCCCC[C@@](C)(C(=O)N[C@@H](Cc3ccccc3)C(=O)N[C@@H](Cc3c[nH]c4ccccc34)C(=O)N[C@@H](CCC(N)=O)C(N)=O)NC(=O)[C@H](C(C)C)NC(=O)[C@H](Cc3ccccc3)NC(=O)[C@H](C)NC(=O)[C@H](C)NC(=O)[C@H](CCC(=O)O)NC(=O)[C@H](CC(=O)O)NC1=O)NC(=O)[C@H](C)NC(=O)[C@H](Cc1cccc(C)c1)NC2=O (stereo partly drawn) [I-203, Ac-PL3-3MeF-Ala-B5-Asp-Glu-Ala-Ala-Phe-Val-S8-Phe-Trp-Gln-NH2] | 3.09 | –
